Test results as given in US20230322770A1, “SUBSTITUTED HETEROARYL COMPOUNDS USEFUL AS INHIBITORS OF TLR9” (BRISTOL-MYERS SQUIBB COMPANY, priority 2020, published 2023).

Key:
Format in all cases: cell-based
human TLR7 = biological target: T1, human TLR7 (Homo sapiens, UniProt Q9NYK1); assay: TLR7 inhibition reporter assay (HEK-Blue cells, SEAP reporter); conditions: HEK-Blue cells overexpressing human TLR7; stimulated with gardiquimod 7.5 μM; SEAP after 22 hour incubation
T1 construct: host or cells: HEK-Blue cells (HEK293-derived reporter line)
T1 sequence (Q9NYK1 27-1049): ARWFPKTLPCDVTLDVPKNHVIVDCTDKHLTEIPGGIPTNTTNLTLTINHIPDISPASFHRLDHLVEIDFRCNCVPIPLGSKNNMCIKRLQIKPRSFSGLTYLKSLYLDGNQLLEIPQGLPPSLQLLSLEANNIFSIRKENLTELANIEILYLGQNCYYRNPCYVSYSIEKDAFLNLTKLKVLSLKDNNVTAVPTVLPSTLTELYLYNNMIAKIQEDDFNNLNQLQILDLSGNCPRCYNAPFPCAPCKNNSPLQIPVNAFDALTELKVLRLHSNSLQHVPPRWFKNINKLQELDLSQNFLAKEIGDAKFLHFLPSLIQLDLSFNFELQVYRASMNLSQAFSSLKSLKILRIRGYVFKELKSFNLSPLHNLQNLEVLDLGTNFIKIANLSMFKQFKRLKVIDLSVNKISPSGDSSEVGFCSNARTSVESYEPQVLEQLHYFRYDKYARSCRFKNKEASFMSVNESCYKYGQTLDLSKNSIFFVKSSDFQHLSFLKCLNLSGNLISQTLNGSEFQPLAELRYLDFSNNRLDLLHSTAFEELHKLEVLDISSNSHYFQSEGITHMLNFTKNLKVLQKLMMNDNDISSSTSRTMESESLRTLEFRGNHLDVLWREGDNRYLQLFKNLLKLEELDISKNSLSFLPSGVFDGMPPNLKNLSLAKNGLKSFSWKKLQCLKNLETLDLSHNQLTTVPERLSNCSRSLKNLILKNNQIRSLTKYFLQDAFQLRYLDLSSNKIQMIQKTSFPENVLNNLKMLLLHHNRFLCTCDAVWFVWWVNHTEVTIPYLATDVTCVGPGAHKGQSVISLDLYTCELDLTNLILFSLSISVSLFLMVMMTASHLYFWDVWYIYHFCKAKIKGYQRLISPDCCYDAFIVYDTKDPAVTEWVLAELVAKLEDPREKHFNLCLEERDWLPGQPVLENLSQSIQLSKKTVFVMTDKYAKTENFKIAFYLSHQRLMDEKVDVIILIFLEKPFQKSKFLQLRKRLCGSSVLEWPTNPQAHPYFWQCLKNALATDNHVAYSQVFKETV
Protocol: (§1) TLR7/8/9 Inhibition Reporter Assays
(§2) HEK-Blue™-cells (Invivogen) overexpressing human TLR7, TLR8 or TLR9 receptors were used for screening inhibitors of these receptors using an inducible SEAP (secreted embryonic alkaline phosphatase) reporter gene under the control of the IFN-β minimal promoter fused to five NF-κB and AP-1-binding sites. Briefly, cells are seeded into Greiner 384 well plates (15000 cells per well for TLR7, 20,000 for TLR8 and 25,000 for TLR9) and then treated with test compounds in DMSO to yield a final dose response concentration range of 0.05 nM-50 μM. After a 30 minute compound pre-treatment at room temperature, the cells are then stimulated with a TLR7 ligand (gardiquimod at a final concentration of 7.5 μM), TLR8 ligand (R848 at a final concentration of 15.9 μM) or TLR9 ligand (ODN2006 at a final concentration of 5 nM) to activate NF-κB and AP-1 which induce the production of SEAP. After a 22 hour incubation at 37° C., 5% CO2, SEAP levels are determined with the addition of HEK-Blue™ Detection reagent (Invivogen), a cell culture medium that allows for detection of SEAP, according to manufacturer's specifications. The percent inhibition is determined as the % reduction in the HEK-Blue signal present in wells treated with agonist plus DMSO alone compared to wells treated with a known inhibitor.

human TLR9 = biological target: T2, human TLR9 (Homo sapiens, UniProt Q9NR96); assay: TLR9 inhibition reporter assay (HEK-Blue cells, SEAP reporter); conditions: HEK-Blue cells overexpressing human TLR9; stimulated with ODN2006 5 nM; SEAP after 22 hour incubation
T2 construct: host or cells: HEK-Blue cells (HEK293-derived reporter line)
T2 sequence (Q9NR96 26-1032): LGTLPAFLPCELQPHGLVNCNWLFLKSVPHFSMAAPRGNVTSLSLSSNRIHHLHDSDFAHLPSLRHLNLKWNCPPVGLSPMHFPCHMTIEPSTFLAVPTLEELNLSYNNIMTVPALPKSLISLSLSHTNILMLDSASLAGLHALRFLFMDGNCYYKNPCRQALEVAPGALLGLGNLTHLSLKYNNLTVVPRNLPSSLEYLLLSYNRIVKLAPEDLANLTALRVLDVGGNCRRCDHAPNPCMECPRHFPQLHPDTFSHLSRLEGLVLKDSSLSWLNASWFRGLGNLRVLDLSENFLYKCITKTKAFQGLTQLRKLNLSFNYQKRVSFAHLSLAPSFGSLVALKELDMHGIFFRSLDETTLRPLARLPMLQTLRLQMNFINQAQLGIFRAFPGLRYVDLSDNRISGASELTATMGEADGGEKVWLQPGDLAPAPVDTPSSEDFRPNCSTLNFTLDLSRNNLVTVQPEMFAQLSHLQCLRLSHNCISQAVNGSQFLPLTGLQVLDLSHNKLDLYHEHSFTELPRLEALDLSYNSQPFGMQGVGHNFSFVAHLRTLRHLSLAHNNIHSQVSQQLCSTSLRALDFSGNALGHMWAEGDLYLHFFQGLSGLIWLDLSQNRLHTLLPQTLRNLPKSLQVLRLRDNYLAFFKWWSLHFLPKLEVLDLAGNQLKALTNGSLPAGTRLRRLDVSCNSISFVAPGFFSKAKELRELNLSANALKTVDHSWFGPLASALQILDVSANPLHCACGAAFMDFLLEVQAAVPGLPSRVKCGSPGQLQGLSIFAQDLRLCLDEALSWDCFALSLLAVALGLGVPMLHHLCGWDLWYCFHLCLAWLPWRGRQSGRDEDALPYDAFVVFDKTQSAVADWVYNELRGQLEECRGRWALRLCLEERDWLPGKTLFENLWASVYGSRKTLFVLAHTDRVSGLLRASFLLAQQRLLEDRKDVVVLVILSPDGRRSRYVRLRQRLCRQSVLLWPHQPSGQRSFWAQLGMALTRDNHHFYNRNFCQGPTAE
Protocol: as §1, §2

human TLR8 = biological target: T3, human TLR8 (Homo sapiens, UniProt Q9NR97); assay: TLR8 inhibition reporter assay (HEK-Blue cells, SEAP reporter); conditions: HEK-Blue cells overexpressing human TLR8; stimulated with R848 15.9 μM; SEAP after 22 hour incubation
T3 construct: host or cells: HEK-Blue cells (HEK293-derived reporter line)
T3 sequence (Q9NR97 27-1041): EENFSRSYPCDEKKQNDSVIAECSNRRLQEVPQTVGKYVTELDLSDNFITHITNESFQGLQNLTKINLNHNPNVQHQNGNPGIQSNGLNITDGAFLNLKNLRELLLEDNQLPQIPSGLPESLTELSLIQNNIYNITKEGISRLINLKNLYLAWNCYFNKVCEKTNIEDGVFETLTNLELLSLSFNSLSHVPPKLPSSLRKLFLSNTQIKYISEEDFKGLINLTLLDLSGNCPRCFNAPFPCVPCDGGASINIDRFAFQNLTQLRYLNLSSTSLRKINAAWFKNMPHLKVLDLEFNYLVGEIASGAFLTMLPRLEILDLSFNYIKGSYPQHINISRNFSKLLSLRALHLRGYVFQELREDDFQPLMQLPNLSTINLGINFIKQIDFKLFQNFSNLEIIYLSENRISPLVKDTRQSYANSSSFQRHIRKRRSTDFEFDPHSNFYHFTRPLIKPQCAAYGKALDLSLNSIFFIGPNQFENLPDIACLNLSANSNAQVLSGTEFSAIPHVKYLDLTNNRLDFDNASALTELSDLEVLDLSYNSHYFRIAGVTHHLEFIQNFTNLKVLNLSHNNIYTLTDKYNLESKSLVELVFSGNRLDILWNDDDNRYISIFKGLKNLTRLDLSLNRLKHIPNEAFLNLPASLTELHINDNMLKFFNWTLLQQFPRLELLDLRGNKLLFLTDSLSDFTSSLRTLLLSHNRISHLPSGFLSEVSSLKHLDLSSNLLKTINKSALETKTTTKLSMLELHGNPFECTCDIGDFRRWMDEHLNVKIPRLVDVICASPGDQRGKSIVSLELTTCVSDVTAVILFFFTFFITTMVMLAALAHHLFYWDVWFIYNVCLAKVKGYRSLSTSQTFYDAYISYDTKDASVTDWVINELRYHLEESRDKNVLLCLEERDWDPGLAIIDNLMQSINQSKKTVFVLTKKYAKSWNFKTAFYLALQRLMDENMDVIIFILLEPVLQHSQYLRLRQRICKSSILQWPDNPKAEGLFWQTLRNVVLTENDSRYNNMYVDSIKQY
Protocol: as §1, §2

Structure (SMILES) | IC50 (human TLR7) [µM] | IC50 (human TLR9) [µM] | IC50 (human TLR8) [µM]
Cn1c(-c2ccc(S(C)(=O)=O)cc2)cc2ncc(-c3ccc(CN4CCN(CC(C)(C)O)CC4)cc3)cc21 [Example 21] | 9.6 | 0.206 | 8.1
CC(C)N1CCN(c2ccc(-c3cnc4cc(-c5ccc(S(C)(=O)=O)cc5)n(C)c4c3)cc2)C[C@@H]1C [Example 29] | 3.3 | 0.722 | 2.3
CC(C)N1CCN(c2ccc(-c3cnc4cc(-c5ccc(S(C)(=O)=O)cc5)n(C)c4c3)cc2)CC1 [Example 2, 6-(4-(4-Isopropylpiperazin-1-yl)phenyl)-1-methyl-2-(4-(methylsulfonyl)phenyl)-1H-pyrrolo[3,2-b]pyridine] | 2.7 | 0.139 | 7.6
COc1cc(-c2cc3ncc(-c4ccc(N5CCN(C(C)C)CC5)cc4)cc3n2C)ccc1C#N [Example 38, 4-[6-[4-(4-isopropylpiperazin-1-yl)phenyl]-1-methyl-pyrrolo[3,2-b]pyridin-2-yl]-2-methoxy-benzonitrile] | > 25 | 0.505 | > 25
CC(C)N1C[C@H](C)N(c2ccc(-c3cnc4cc(-c5ccc(S(C)(=O)=O)cc5)n(C)c4c3)cc2)[C@@H](C)C1 [Example 31] | 2.5 | 0.48 | 4.5
CC(C)N1[C@H](C)CN(c2ccc(-c3cnc4cc(-c5ccc(S(C)(=O)=O)cc5)n(C)c4c3)cc2)C[C@@H]1C [Example 34] | > 50 | 0.244 | > 50
CN(C)C1CCN(Cc2ccc(-c3cnc4cc(-c5ccc(S(C)(=O)=O)cc5)n(C)c4c3)cc2)CC1 [Example 24] | 4.9 | 0.014 | > 50
CCN1CCN(Cc2ccc(-c3cnc4cc(-c5ccc(S(C)(=O)=O)cc5)n(C)c4c3)cc2)CC1 [Example 25] | > 50 | 0.212 | 43.8
CC(C)N1CCN(c2ccc(-c3cnc4cc(-c5ccc(S(C)(=O)=O)cc5F)n(C)c4c3)cc2)CC1 [Example 41] | 10 | 0.157 | 1.6
CC(C)N1CCN(Cc2ccc(-c3cnc4cc(-c5ccc(S(C)(=O)=O)cc5)n(C)c4c3)cc2)CC1 [Example 23] | > 50 | 0.069 | 23.2
Cn1c(-c2ccc(S(C)(=O)=O)cc2F)cc2ncc(-c3ccc(N4CCN5CCCC5C4)cc3)cc21 (stereo not drawn) [Example 42] | > 50 | 0.436 | 2.8
